Where a name gives a salt, the structure may show the parent alone.
Test system: mice
Assay: SmartCube in vivo neuropharmacological behavioral assay
Conditions: for AD: antidepressant, percent probability / AG: analgesic, percent probability / AP: antipsychotic, percent probability / AX: anxiolytic, percent probability / CE: cognitive enhancer, percent probability / HA: hallucinogenic, percent probability / MS: mood stabilizer, percent probability / PS, percent probability / SD: sedative hypnotic, percent probability / SE: side effects, percent probability / UN: uncharacterized CNS activity, percent probability / XG: anxiogenic, percent probability: SmartCube, i.p. 15 min before test, at the MED; for minimal effective dose: Mus musculus, ip, read-out: MED (minimal effective dose)
How it was run: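 Mice dosed i.p. with compound in Pharmasolve (NMP) 15 min before automated video capture of behavior; doses e.g. 0.3–30 mg/kg. Behavioral signature compared with reference-drug classes, giving per-class probability (0–100, 0 = LOQ); MED = lowest dose with ≥50% total activity.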

[1] = dose having 50% or more total activity in SmartCube, i.p.

## 11-[(2E)-Pent-2-en-1-yl]-11-azatricyclo[6.2.1.0^2,7]undeca-2,4,6,9-tetraene hydrochloride [Compound 9]
  AD: antidepressant, percent probability: + (LOQ ≤ X < 5%)
  AG: analgesic, percent probability: + (LOQ ≤ X < 5%)
  AP: antipsychotic, percent probability: + (LOQ ≤ X < 5%)
  AX: anxiolytic, percent probability: + (LOQ ≤ X < 5%)
  CE: cognitive enhancer, percent probability: + (LOQ ≤ X < 5%)
  HA: hallucinogenic, percent probability: + (LOQ ≤ X < 5%)
  MS: mood stabilizer, percent probability: + (LOQ ≤ X < 5%)
  PS, percent probability: + (LOQ ≤ X < 5%)
  SD: sedative hypnotic, percent probability: + (LOQ ≤ X < 5%)
  SE: side effects, percent probability: + (LOQ ≤ X < 5%)
  UN: uncharacterized CNS activity, percent probability: + (LOQ ≤ X < 5%)
  XG: anxiogenic, percent probability: + (LOQ ≤ X < 5%)
[1]
  MED (minimal effective dose): + (30 mg/kg < +)

## CC(C)N1C2C=CC1c1c(Cl)cccc12 (centres unmarked) [Compound 12, 3-Chloro-11-(propan-2-yl)-11-azatricyclo[6.2.1.0^2,7]undeca-2,4,6,9-tetraene hydrochloride]
[1]
  minimal effective dose: > 30 mg/kg
  AD: antidepressant, percent probability: + (LOQ ≤ X < 5%)
  AG: analgesic, percent probability: + (LOQ ≤ X < 5%)
  AP: antipsychotic, percent probability: + (LOQ ≤ X < 5%)
  AX: anxiolytic, percent probability: +++ (25% ≤ X < 50%)
  CE: cognitive enhancer, percent probability: + (LOQ ≤ X < 5%)
  HA: hallucinogenic, percent probability: + (LOQ ≤ X < 5%)
  MS: mood stabilizer, percent probability: + (LOQ ≤ X < 5%)
  PS, percent probability: ++ (5% ≤ X < 25%)
  SD: sedative hypnotic, percent probability: + (LOQ ≤ X < 5%)
  SE: side effects, percent probability: + (LOQ ≤ X < 5%)
  UN: uncharacterized CNS activity, percent probability: + (LOQ ≤ X < 5%)
  XG: anxiogenic, percent probability: + (LOQ ≤ X < 5%)

## c1ccc2c(c1)C1CCC2N1C1CCCC1 [Compound 43, 11-Cyclopentyl-11-azatricyclo[6.2.1.0^2,7]undeca-2,4,6-triene hydrochloride]
[1]
  minimal effective dose: 10 to 30 mg/kg
  AD: antidepressant, percent probability: ++++ (50% ≤ X <1 00%)
  AG: analgesic, percent probability: + (LOQ ≤ X < 5%)
  AP: antipsychotic, percent probability: + (LOQ ≤ X < 5%)
  AX: anxiolytic, percent probability: ++ (5% ≤ X < 25%)
  CE: cognitive enhancer, percent probability: + (LOQ ≤ X < 5%)
  HA: hallucinogenic, percent probability: + (LOQ ≤ X < 5%)
  MS: mood stabilizer, percent probability: + (LOQ ≤ X < 5%)
  PS, percent probability: ++ (5% ≤ X < 25%)
  SD: sedative hypnotic, percent probability: + (LOQ ≤ X < 5%)
  SE: side effects, percent probability: + (LOQ ≤ X < 5%)
  UN: uncharacterized CNS activity, percent probability: ++ (5% ≤ X < 25%)
  XG: anxiogenic, percent probability: + (LOQ ≤ X < 5%)

## CCC(C)N1C2CCC1c1ccccc12 (centres unmarked) [Compound 44, 11-(Butan-2-yl)-11-azatricyclo[6.2.1.0^2,7]undeca-2,4,6-triene hydrochloride]
[1]
  minimal effective dose: 1 to 10 mg/kg
  AD: antidepressant, percent probability: ++++ (50% ≤ X <1 00%)
  AG: analgesic, percent probability: + (LOQ ≤ X < 5%)
  AP: antipsychotic, percent probability: + (LOQ ≤ X < 5%)
  AX: anxiolytic, percent probability: ++ (5% ≤ X < 25%)
  CE: cognitive enhancer, percent probability: + (LOQ ≤ X < 5%)
  HA: hallucinogenic, percent probability: + (LOQ ≤ X < 5%)
  MS: mood stabilizer, percent probability: + (LOQ ≤ X < 5%)
  PS, percent probability: ++ (5% ≤ X < 25%)
  SD: sedative hypnotic, percent probability: + (LOQ ≤ X < 5%)
  SE: side effects, percent probability: + (LOQ ≤ X < 5%)
  UN: uncharacterized CNS activity, percent probability: + (LOQ ≤ X < 5%)
  XG: anxiogenic, percent probability: + (LOQ ≤ X < 5%)

## Clc1cccc2c1C1CCC2N1 (centres unmarked) [Compound 13, 3-Chloro-11-azatricyclo[6.2.1.0^2,7]undeca-2,4,6-triene hydrochloride]
[1]
  minimal effective dose: > 30 mg/kg
  AD: antidepressant, percent probability: + (LOQ ≤ X < 5%)
  AG: analgesic, percent probability: + (LOQ ≤ X < 5%)
  AP: antipsychotic, percent probability: + (LOQ ≤ X < 5%)
  AX: anxiolytic, percent probability: ++ (5% ≤ X < 25%)
  CE: cognitive enhancer, percent probability: ++ (5% ≤ X < 25%)
  HA: hallucinogenic, percent probability: + (LOQ ≤ X < 5%)
  MS: mood stabilizer, percent probability: + (LOQ ≤ X < 5%)
  PS, percent probability: + (LOQ ≤ X < 5%)
  SD: sedative hypnotic, percent probability: + (LOQ ≤ X < 5%)
  SE: side effects, percent probability: + (LOQ ≤ X < 5%)
  UN: uncharacterized CNS activity, percent probability: +++ (25% ≤ X < 50%)
  XG: anxiogenic, percent probability: + (LOQ ≤ X < 5%)

## Fc1cc2c(cc1F)C1CCC2N1 [Compound 7, 4,5-Difluoro-11-azatricyclo[6.2.1.0^2,7]undeca-2,4,6-triene hydrochloride]
[1]
  minimal effective dose: > 30 mg/kg
  AD: antidepressant, percent probability: ++ (5% ≤ X < 25%)
  AG: analgesic, percent probability: ++ (5% ≤ X < 25%)
  AP: antipsychotic, percent probability: + (LOQ ≤ X < 5%)
  AX: anxiolytic, percent probability: +++ (25% ≤ X < 50%)
  CE: cognitive enhancer, percent probability: + (LOQ ≤ X < 5%)
  HA: hallucinogenic, percent probability: + (LOQ ≤ X < 5%)
  MS: mood stabilizer, percent probability: + (LOQ ≤ X < 5%)
  PS, percent probability: + (LOQ ≤ X < 5%)
  SD: sedative hypnotic, percent probability: + (LOQ ≤ X < 5%)
  SE: side effects, percent probability: ++ (5% ≤ X < 25%)
  UN: uncharacterized CNS activity, percent probability: + (LOQ ≤ X < 5%)
  XG: anxiogenic, percent probability: + (LOQ ≤ X < 5%)

## COCC(C)N1C2C=CC1c1ccccc12 (centres unmarked) [Compound 57, 11-(1-Methoxypropan-2-yl)-11-azatricyclo[6.2.1.0^2,7]undeca-2,4,6,9-tetraene hydrochloride]
[1]
  minimal effective dose: > 30 mg/kg
  AD: antidepressant, percent probability: ++ (5% ≤ X < 25%)
  AG: analgesic, percent probability: + (LOQ ≤ X < 5%)
  AP: antipsychotic, percent probability: + (LOQ ≤ X < 5%)
  AX: anxiolytic, percent probability: + (LOQ ≤ X < 5%)
  CE: cognitive enhancer, percent probability: + (LOQ ≤ X < 5%)
  HA: hallucinogenic, percent probability: + (LOQ ≤ X < 5%)
  MS: mood stabilizer, percent probability: + (LOQ ≤ X < 5%)
  PS, percent probability: + (LOQ ≤ X < 5%)
  SD: sedative hypnotic, percent probability: + (LOQ ≤ X < 5%)
  SE: side effects, percent probability: + (LOQ ≤ X < 5%)
  UN: uncharacterized CNS activity, percent probability: + (LOQ ≤ X < 5%)
  XG: anxiogenic, percent probability: + (LOQ ≤ X < 5%)

## CC1=C(C)C2NC1c1ccccc12 [Compound 59, 9,10-Dimethyl-11-azatricyclo[6.2.1.0^2,7]undeca-2,4,6,9-tetraene hydrochloride]
[1]
  minimal effective dose: 10 to 30 mg/kg
  AD: antidepressant, percent probability: ++++ (50% ≤ X <1 00%)
  AG: analgesic, percent probability: + (LOQ ≤ X < 5%)
  AP: antipsychotic, percent probability: + (LOQ ≤ X < 5%)
  AX: anxiolytic, percent probability: ++ (5% ≤ X < 25%)
  CE: cognitive enhancer, percent probability: ++ (5% ≤ X < 25%)
  HA: hallucinogenic, percent probability: ++ (5% ≤ X < 25%)
  MS: mood stabilizer, percent probability: + (LOQ ≤ X < 5%)
  PS, percent probability: + (LOQ ≤ X < 5%)
  SD: sedative hypnotic, percent probability: + (LOQ ≤ X < 5%)
  SE: side effects, percent probability: + (LOQ ≤ X < 5%)
  UN: uncharacterized CNS activity, percent probability: + (LOQ ≤ X < 5%)
  XG: anxiogenic, percent probability: + (LOQ ≤ X < 5%)

## CC1CC2c3ccccc3C1N2C(C)C (centres unmarked) [Compound 51, 9-Methyl-11-(propan-2-yl)-11-azatricyclo[6.2.1.0^2,7]undeca-2,4,6-tri ene hydrochloride]
[1]
  minimal effective dose: 1 to 10 mg/kg
  AD: antidepressant, percent probability: ++++ (50% ≤ X <1 00%)
  AG: analgesic, percent probability: + (LOQ ≤ X < 5%)
  AP: antipsychotic, percent probability: + (LOQ ≤ X < 5%)
  AX: anxiolytic, percent probability: ++ (5% ≤ X < 25%)
  CE: cognitive enhancer, percent probability: + (LOQ ≤ X < 5%)
  HA: hallucinogenic, percent probability: ++ (5% ≤ X < 25%)
  MS: mood stabilizer, percent probability: + (LOQ ≤ X < 5%)
  PS, percent probability: ++ (5% ≤ X < 25%)
  SD: sedative hypnotic, percent probability: + (LOQ ≤ X < 5%)
  SE: side effects, percent probability: + (LOQ ≤ X < 5%)
  UN: uncharacterized CNS activity, percent probability: + (LOQ ≤ X < 5%)
  XG: anxiogenic, percent probability: + (LOQ ≤ X < 5%)

## C1=CC2c3ccccc3C1N2C1CC1 [Compound 56, 11-Cyclopropyl-11-azatricyclo[6.2.1.0^2,7]undeca-2,4,6,9-tetraene hydrochloride]
[1]
  minimal effective dose: 10 to 30 mg/kg
  AD: antidepressant, percent probability: ++ (5% ≤ X < 25%)
  AG: analgesic, percent probability: + (LOQ ≤ X < 5%)
  AP: antipsychotic, percent probability: ++ (5% ≤ X < 25%)
  AX: anxiolytic, percent probability: ++ (5% ≤ X < 25%)
  CE: cognitive enhancer, percent probability: ++ (5% ≤ X < 25%)
  HA: hallucinogenic, percent probability: + (LOQ ≤ X < 5%)
  MS: mood stabilizer, percent probability: + (LOQ ≤ X < 5%)
  PS, percent probability: + (LOQ ≤ X < 5%)
  SD: sedative hypnotic, percent probability: + (LOQ ≤ X < 5%)
  SE: side effects, percent probability: + (LOQ ≤ X < 5%)
  UN: uncharacterized CNS activity, percent probability: +++ (25% ≤ X < 50%)
  XG: anxiogenic, percent probability: + (LOQ ≤ X < 5%)

## CC1=C(C)C2c3ccccc3C1N2C(C)C [Compound 60, 9,10-Dimethyl-11-(propan-2-yl)-11-azatricyclo[6.2.1.0^2,7]undeca-2,4,6,9-tetraene hydrochloride]
[1]
  minimal effective dose: 10 to 30 mg/kg
  AD: antidepressant, percent probability: ++++ (50% ≤ X <1 00%)
  AG: analgesic, percent probability: ++ (5% ≤ X < 25%)
  AP: antipsychotic, percent probability: + (LOQ ≤ X < 5%)
  AX: anxiolytic, percent probability: + (LOQ ≤ X < 5%)
  CE: cognitive enhancer, percent probability: + (LOQ ≤ X < 5%)
  HA: hallucinogenic, percent probability: + (LOQ ≤ X < 5%)
  MS: mood stabilizer, percent probability: + (LOQ ≤ X < 5%)
  PS, percent probability: ++ (5% ≤ X < 25%)
  SD: sedative hypnotic, percent probability: + (LOQ ≤ X < 5%)
  SE: side effects, percent probability: + (LOQ ≤ X < 5%)
  UN: uncharacterized CNS activity, percent probability: + (LOQ ≤ X < 5%)
  XG: anxiogenic, percent probability: + (LOQ ≤ X < 5%)

— patent US20230109801A1 (Blue Oak Pharmaceuticals, Inc., priority 2020, published 2023)
